Assay results reported in the NIST ThermoML archive (doi:10.1021/je034255e).

Legend:
[1] = Liquid; for mass density: 101.33 kPa
[2] = excess molar enthalpy (molar enthalpy of mixing); xn = mol fraction of the nth substance listed; conditions: 413.15 K, 1620 kPa, Liquid, Flow calorimetry

CCC(N)=O [propanamide]
[1]
Conditions	mass density [kg/m3]	vapor or sublimation pressure [kPa]
355.65 K	963.2	–
358.15 K	961.2	–
363.15 K	957.2	–
375.45 K	–	0.97
384.15 K	–	1.53
394.15 K	–	2.52
403.65 K	–	4.02
414.05 K	–	6.4
427.65 K	–	11.22
443.85 K	–	21.16
455.55 K	–	31.04
462.95 K	–	40.87
469.05 K	–	50.69
475.85 K	–	60.86

CCC(N)=O [propanamide] + CCCCCCCCCCC
[2]
Conditions	excess molar enthalpy [kcal/mol]
x2 = 0.0092	0.0332
x2 = 0.0284	0.0576
x2 = 0.049	0.0607
x2 = 0.1074	0.0669
x2 = 0.7646	0.133
x2 = 0.9337	0.15
x2 = 0.9661	0.154
